Laboratory results taken from patent publication US7718768B2, “Biologically active peptide [sequence]” (CMS Peptides Patent Holding Company Limited, priority 2001, dated 2010).
Marks after values point to notes of the source that are not given here. No end group written: not given here.

Legend:
Assay type in all cases: in vivo, BALB/c mice
anti-SRBC antibody = experiment: Sheep Red Blood Cell (SRBC) hemolysis test, anti-SRBC antibody formation; conditions: SRBC on day 12, IFN-γ and IL-2 groups 3×10^5 IU/kg/day, X ± SD
Summary of the method: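 Hemolytic antibody read-out: day-16 mouse serum (1:500) incubated 10 min at 37 °C with 2% SRBC and Cavy-serum complement, supernatant treated with Drabkin solution, OD540nm measured. Animals were SRBC-immunized i.p. (0.2 ml) on day 12 during dosing.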

NK cell = NK cell cytotoxicity activity test (YAC-1 target cells, MTT) on spleen cells of treated mice; conditions: IFN-γ and IL-2 groups 3×10^5 IU/kg/day, X ± SD
Protocol: The above substances were all dissolved in 0.5 ml saline and injected intraperitoneal (i.p.) for 15 continuous days, once per day.
(§1) Ten mice per group. The day after the last test substance administration, the mice were sacrificed by cervical dislocation. The spleen was isolated aseptically and manually dispersed in cold D-Hank's solution using an injection needle. The dispersed cell suspension was further sieved through a 100 gauge 150 μm diameter stainless steel sieve. After centrifugation at 200 g for 10 minutes, the supernatant was discarded. The cell pellet was re-suspended in 10 volume of Tris-NH4Cl buffer and then kept standing still for 10 minutes at room temperature. The suspended cells were collected by centrifugation at 150 g for 10 minutes. The cells were washed 2-4 times with cold D-Hank's solution by re-suspending and collecting by centrifugation with condition as described above. The washed cells were then diluted to the desired cell densities by RPMI-1640 culture medium, containing 10% fetal bovine serum.
Mice spleen cells were prepared to 4×10^6/ml as described in section 1.1 above. Target cells YAC-1 were brought to log phase and adjusted to 1×10^5/ml. Using a 96 wells cell culture plate, 100 μl mouse spleen cells and 100 μl culture medium were added to the control well containing only the spleen cells; 100 μl target cells and 100 μl culture medium were added to the control well containing only target cells; 100 μl mouse spleen cells and 100 μl target cells were added to the NK activity assay well. Three parallel sets of the above were prepared per mouse.
Samples were centrifuged at 150 g for 10 minutes to collect the cells. The supernatant was discarded and 50 μl/well MTT of 1 mg/ml was added. The reaction mixture was then shaken for 2 minutes, and incubated at 37° C., 5% CO2 for 4 hours. The supernatant was discarded after centrifugation at 150 g for 10 minutes. 120 μl 40 mM HCl-2-propanol was added and shaken for 3 minutes. An ELISA reader was used to obtain OD570nm of each well referenced at 630 nm.

[1] = immunity organ weight test (thymus gland index, spleen index); conditions: X ± SD
Summary of the method: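 Organs (thymus, spleen, liver) were weighed one day after the last of 15 daily i.p. doses given in saline. Indices are expressed as percentage of body weight, with α derived from body weight relative to combined liver and spleen weight.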

T lymphocyte = T lymphocyte transformation in mice with ascitic fluid type liver cancer H22
Protocol: as §1, with “Healthy BALB/c mice were randomized into peptide group, rmIFN-γ group, rhIL-2 group, and saline group, 15” for “Ten”, “group, and prepared into H22 carrying mice model as described in section Method 3. After implantation of” for “group. The day after”, “cancer cells, the” for “last”, “substances were administered for 15 days,” for “substance administration,”, “killed” for “sacrificed”, “100-gauge” for “100 gauge”
Spleen cells of density 1×10^6/ml were placed onto a 96 wells cell culture plate, 100 μl/well, three parallel wells each of the assay sample and control sample per mouse. To the assay wells, 100 μl/well ConA of 100 μg/ml in RPMI-1640 was added, and 100 μl/well plain RPMI-1640 was used for the controls. The cells were incubated for 66 hrs at 37° C., 5% CO2. The cells were then pelleted by centrifugation at 150 g for 10 minutes.
50 μl/well MTT of 1 mg/ml in RPMI-1640 was added to the cell pellet and the cells re-suspended by shaking for 2 minutes. The incubation was continued for 4 hours. The supernatant was discarded after centrifugation at 150 g for 10 minutes. 120 μl 40 mM HCl-2-propanol was added to the cell pellet and shaken for 3 minutes. Use an ELISA reader to obtain OD570nm of each well referenced at 630 nm.
Each mouse formed three assay wells and three control wells. The Stimulation Index (SI) of each mouse was obtained by first deriving the average OD of the three parallel wells, then dividing the value of the assay wells by the control wells.

[2] = peptide 0.5 μg/kg/day i.p. 15 days
[3] = peptide 5 μg/kg/day i.p. 15 days
[4] = peptide 50 μg/kg/day i.p. 15 days
[5] = peptide 500 μg/kg/day i.p. 15 days
[6] = peptide 5 μg/kg/day i.p. 15 days, IFN-γ and IL-2 groups 3×10^5 IU/kg/day
[7] = peptide 0.5 μg/kg/day i.p. 15 days, IFN-γ and IL-2 groups 3×10^5 IU/kg/day
[8] = peptide 50 μg/kg/day i.p. 15 days, IFN-γ and IL-2 groups 3×10^5 IU/kg/day
[9] = peptide 500 μg/kg/day i.p. 15 days, IFN-γ and IL-2 groups 3×10^5 IU/kg/day

| Substance | anti-SRBC antibody formation (sample serum index) (anti-SRBC antibody; [2]) | anti-SRBC antibody formation (sample serum index) (anti-SRBC antibody; [3]) | anti-SRBC antibody formation (sample serum index) (anti-SRBC antibody; [4]) | anti-SRBC antibody formation (sample serum index) (anti-SRBC antibody; [5]) | NK cell cytotoxic activity (NK cell activity index) (NK cell; [2]) [%] | NK cell cytotoxic activity (NK cell activity index) (NK cell; [3]) | weight of thymus gland (thymus gland index) [1, 6] | weight of spleen (spleen index) [1, 5] [%] | NK cell cytotoxic activity (NK cell activity index) (NK cell; [4]) [%] | weight of spleen (spleen index) [1, 7] [%] | NK cell cytotoxic activity (NK cell activity index) (NK cell; [5]) | weight of thymus gland (thymus gland index) [1, 8] | weight of thymus gland (thymus gland index) [1, 9] | Stimulation index (T lymphocyte; 0.5 μg/kg i.p. once per day) | Stimulation index (T lymphocyte; 5 μg/kg i.p. once per day) | weight of thymus gland (thymus gland index) [1, 7] | Stimulation index (T lymphocyte; 500 μg/kg i.p. once per day) | weight of spleen (spleen index) [1, 8] [%] | weight of spleen (spleen index) [1, 3] [%] |
| --- | --- | --- | --- | --- | --- | --- | --- | --- | --- | --- | --- | --- | --- | --- | --- | --- | --- | --- | --- |
| RVAPEEHPTL [CMS011] | 5 ± 3* Unit | 115 ± 27*^@^ Unit | 67 ± 9*^@ Unit | 188 ± 16*^@^ Unit | 79 ± 3 | 76 ± 10 % | 0.22 ± 0.04 % | 0.41 ± 0.04 |  |  |  |  |  |  |  |  |  |  |  |
| PTTKTYFPHF [CMS001] |  | 110 ± 24*^@ Unit |  |  |  |  | 0.22 ± 0.05 % | 0.43 ± 0.07 | 85 ± 10 | 0.40 ± 0.05 |  |  |  |  |  |  |  |  |  |
| IGMESAGIHETTY [CMS016] |  | 93 ± 32*^@ Unit |  | 143 ± 38*^@^ Unit |  |  | 0.22 ± 0.06 % |  |  |  | 91 ± 7*^@^ % | 0.20 ± 0.03*^@^ % | 0.18 ± 0.05 % |  |  |  |  |  |  |
| Tyr Ser Leu (YSL; listed as Sus scrofa) [CMS024] | 98 ± 6*^@^ Unit | 171 ± 39*^@^ Unit |  | 75 ± 29*^@ Unit |  | 78 ± 3 % | 0.23 ± 0.06*^ % | 0.34 ± 0.05 |  |  | 89 ± 8 % | 0.27 ± 0.02*^@^ % |  | 1.46 ± 0.19*^$ | 1.45 ± 0.21*^$ |  |  |  |  |
| VGMGQKDSY [CMS019] | 12 ± 3* Unit | 118 ± 20*^@^ Unit |  | 91 ± 26*^@ Unit |  |  | 0.24 ± 0.02*^@^ % | 0.63 ± 0.08 |  |  |  | 0.20 ± 0.03*^@^ % | 0.19 ± 0.02 % | 1.50 ± 0.19*^$ |  |  |  |  |  |
| Phe Glu Glu Glu (FEEE; listed as Sus scrofa) [CMS032] |  | 157 ± 37*^@^ Unit | 131 ± 24*^@^ Unit |  |  |  | 0.29 ± 0.04*^@^ % |  |  |  | 87 ± 5 % | 0.27 ± 0.03*^@^ % | 0.25 ± 0.03*^@^ % |  |  | 0.21 ± 0.06 % |  |  |  |
| LRVAPEEHPTL [CMS009] | 2 ± 1* Unit | 79 ± 18*^@ Unit | 13 ± 5* Unit | 113 ± 22*^@^ Unit |  | 92 ± 6*^@^ % |  | 0.41 ± 0.03 |  |  |  |  |  |  |  |  |  |  |  |
| VAPEEHPTLLTEAPLNPK [CMS010] | 10 ± 3* Unit |  |  | 112 ± 30*^@^ Unit |  | 82 ± 9 % | 0.27 ± 0.05*^@^ % |  |  |  | 91 ± 4*^@^ % |  | 0.19 ± 0.04 % |  |  | 0.21 ± 0.03 % | 1.45 ± 0.21*^$ | 0.38 ± 0.05 |  |
| Pro Glu Asn Phe (PENF; listed as Sus scrofa) [CMS034] | 20 ± 2* Unit | 172 ± 37*^@^ Unit | 136 ± 11*^@^ Unit |  |  | 90 ± 5 % | 0.27 ± 0.06*^@^ % |  |  |  |  | 0.19 ± 0.04*^ % | 0.20 ± 0.05*^ % | 1.37 ± 0.10*^$ |  |  |  |  |  |
| FNFVPP [CMS003] | 2 ± 1* Unit | 91 ± 24*^@ Unit | 52 ± 11* Unit | 96 ± 18*^@ Unit |  |  |  | 0.40 ± 0.04 | 85 ± 6 |  |  |  |  |  |  |  |  |  |  |
| Phe Val Asn Asp (FVND; listed as Sus scrofa) [CMS035] |  | 176 ± 39*^@^ Unit | 97 ± 10*^@^ Unit | 88 ± 16*^@ Unit | 76 ± 10 |  | 0.21 ± 0.04 % |  | 72 ± 9 |  | 90 ± 10 % |  |  | 1.40 ± 0.13*^$ | 1.46 ± 0.16*^$ |  |  |  |  |
| PSIVGRPRHQGVM [CMS015] | 13 ± 4* Unit | 94 ± 37*^@ Unit | 54 ± 9*^@ Unit | 136 ± 22*^@^ Unit |  |  | 0.20 ± 0.08 % | 0.36 ± 0.07 | 78 ± 8 |  |  |  |  |  |  |  |  |  | 0.38 ± 0.15 |
| KAVGHLDDLPGAL [CMS008] |  | 97 ± 26*^@ Unit |  | 82 ± 15*^@ Unit | 46 ± 12 | 92 ± 4*^@^ % |  |  |  |  |  | 0.20 ± 0.04*^@^ % | 0.21 ± 0.03*^@^ % |  |  | 0.22 ± 0.07*^ % |  | 0.39 ± 0.08 |  |
